Laboratory results from PMC9419673 (Nanoscale Advances, 2021).

Assays:
[1] = Analytical RP-HPLC retention as a measure of hydrophobicity; assay type: physicochemical; conditions: longer retention time compared to native EETI-II, Fig. 1
[2] = Solubility in aqueous buffer; assay type: physicochemical; conditions: pH 7.4, aqueous buffer

hydrophobicity by analytical RP-HPLC retention time (in words) [1]: more hydrophobic than EETI-II (CKP) | solubility [2]: > 500 µM
SMILES: CCCCCCCCCCCCCCCC(=O)NCCCC[C@H](N)C(=O)NCC(=O)N[C@@H](CO)C(=O)NCC(=O)N[C@@H](CO)C(=O)NCC(=O)N[C@H]1CSSC[C@@H]2NC(=O)CNC(=O)[C@H](C)NC(=O)[C@H](CC(C)C)NC(=O)[C@@H]3CSSC[C@@H](C(=O)NCC(=O)O)NC(=O)[C@H](Cc4ccccc4)NC(=O)CNC(=O)[C@H](CC(N)=O)NC(=O)[C@@H]4CCCN4C(=O)CNC(=O)[C@H](CSSC[C@H](NC(=O)[C@H](CCCNC(=N)N)NC(=O)[C@H](CCSC)NC(=O)[C@H](CC(C)C)NC(=O)[C@H]([C@@H](C)CC)NC(=O)[C@H](CCCNC(=N)N)NC(=O)[C@@H]4CCCN4C1=O)C(=O)N[C@@H](CCCCN)C(=O)N[C@@H](CCC(N)=O)C(=O)N[C@@H](CC(=O)O)C(=O)N[C@@H](CO)C(=O)N[C@@H](CC(=O)O)C(=O)N3)NC(=O)[C@H](C(C)C)NC2=O [CKP-C16, EETI-II-C16]
